Measurements as given in patent US8618046B2, “Treatment of atherosclerosis with cholesterol ester transport protein mimotopes” (Affiris AG, priority 2007, dated 2013).
Where no end group is shown, it is not given here.

Columns and labels:
[1] = test system: irrelevant peptide-BSA; assay: Titer to irrelevant peptide in sera of immunised animals (peptide ELISA); assay type: in vivo, mouse; settings: Table 1, mice, sera 2 weeks after 3rd injection
Protocol: Balb/c mice/30 μg Peptide, 2 injections in 2 week intervals. S3=2 weeks after 3rd injection. Alum as adjuvant. Titers against original epitope (p4073) induced by injection of mimotopes. Well coating: 50 μl of 1 μM p4073-BSA or 1 μg/ml activated KLH. Detection: αIgG:
Subcutaneous injections in the flank were performed in week 1, week 3 and week 7 with 30 μg peptide-KLH per mouse. Intradermal injections in the ear were performed in week 1, week 3 and week 6 with 10 μg peptide-KLH per mouse. Sera were taken 2 weeks after the 3rd injection. Vaccine formulation with Alum (always 1 mg per mouse): up to 250 μl, injected into one flank. The Alum formulation with 1 ml per mouse (500 μl into each flank) was in 1×PBS as buffer.
Vaccine formulation with Gerbu Adjuvant 100 (Gerbu Cat. Nr. #3100; always 50 μl adjuvant per mouse): 200 μl, 100 μl injected into each flank comprising 1×HEPES as buffer.
Female Balb/c mice, five mice per group, were subcutaneously immunized with 30 μg peptide coupled to KLH. Control groups were administered KLH or C-[…] (SEQ ID NO. 147). As adjuvant alum was used. […] The in vitro ELISA assay to determine the antibody titer was performed with pooled sera after two vaccinations in a two week interval (S2; see FIGS. 7a to 7d). The wells of the ELISA plate were coated with KLH (positive control), mimotope-BSA conjugate, C-[…] (SEQ ID NO. 147) and a irrelevant peptide-BSA conjugate (negative control). The detection was performed with anti-mouse IgG.

[2] = test system: monoclonal antibody “Frida”; assay: In vitro inhibition (competition) ELISA with mAb Frida on coated original CETP epitope; assay type: binding, mouse; settings: for inhibition ELISA signal, 2 μg peptide / inhibition ELISA signal, 20 μg peptide / inhibition ELISA signal, high / inhibition ELISA signal, low: 2.5 ng mAb Frida; for inhibition ELISA signal, 2 μg peptide / inhibition ELISA signal, 20 μg peptide: coat 1 μM peptide; for inhibition ELISA signal, 2 μg peptide / inhibition ELISA signal, 20 μg peptide / inhibition ELISA signal, high / inhibition ELISA signal, low / inhibition ELISA signal, first value column / inhibition ELISA signal, second value column: detection αIgG1; for inhibition ELISA signal, high: high peptide amount; for inhibition ELISA signal, low: low peptide amount; for inhibition in in vitro competition ELISA, mAb “Frida” (in words): monoclonal antibodies “Frida” and, where stated, “James”; for inhibition ELISA signal, first value column / inhibition ELISA signal, second value column: FIG. 18b, column without head
Protocol: Different amounts of peptides (2 and 20 μg, as indicated in the respective figures) derived from Phage Display were incubated with the monoclonal antibody that was used for the screening procedure. Peptides diminishing subsequent binding of the antibody to the original CETP epitope (C-terminal 16 amino acids of CETP protein) coated on ELISA plates were considered as inhibiting. (Results see i.a. FIGS. 19a to 19c)

[3] = FIG. 18a, coat 1 μM 4073 peptide

Substance: p4228-KLH: P12-21; C-RMFPESFLDTLW coupled to KLH (CRMFPESFLDTLW; also: coupled to KLH)
- titer, p irrelevant ([1]; KLH/Alum i.d. (10 μg peptide)): no titer
- titer, p irrelevant ([1]; KLH/Gerbu s.c. (30 μg peptide)): no titer

Substance: C-FGFPEHLLVDFLQSLS [p4073, reference compound]
- inhibition ELISA signal, 2 μg peptide ([2]; FIG. 10a): 0.44
- inhibition ELISA signal, 20 μg peptide ([2]; FIG. 10a): 0.1
- inhibition ELISA signal, 2 μg peptide ([2]; FIG. 10b): 0.64
- inhibition ELISA signal, 20 μg peptide ([2]; FIG. 10b): 0.15
- inhibition ELISA signal, high [2, 3]: 0.094
- inhibition ELISA signal, low [2, 3]: 0.537
- inhibition ELISA signal, high ([2]; FIG. 18c, coat 1 μM 4073): 0.088
- inhibition ELISA signal, low ([2]; FIG. 18c, coat 1 μM 4073): 0.554
- inhibition in in vitro competition ELISA, mAb “Frida” (in words) [2]: inhibiting in vitro

Substance: C-FGFPEHVFIDWLQSLS (N-terminal cysteine; CETP mimotope) [p4477]
- inhibition ELISA signal, high [2, 3]: 0.116
- inhibition ELISA signal, low [2, 3]: 0.808

Substance: C-AAFAAHLLADFLQAAA (N-terminal Cys; CETP mimotope) [p4436]
- inhibition ELISA signal, high ([2]; FIG. 18c, coat 1 μM 4073): 1.691
- inhibition ELISA signal, low ([2]; FIG. 18c, coat 1 μM 4073): 1.632

Substance: C-PAHVFIDWLQ (N-terminal cysteine; CETP mimotope) [p4820]
- inhibition ELISA signal, first value column ([2]; coat 1 μM 4073 peptide): 2.310
- inhibition ELISA signal, second value column ([2]; coat 1 μM 4073 peptide): 2.374

Substance: C-FGFPQHLFTDWLQSLS (N-terminal cysteine; CETP mimotope) [p4481]
- inhibition ELISA signal, high [2, 3]: 0.156
- inhibition ELISA signal, low [2, 3]: 0.551

Substance: FGFPEHLLVDFLQSLS-C (C-terminal Cys; CETP mimotope) [p1208, positive control peptide, reference compound]
- inhibition ELISA signal, high [2, 3]: 0.093
- inhibition ELISA signal, low [2, 3]: 0.712
- inhibition ELISA signal, first value column ([2]; coat 1 μM 4073 peptide): 0.264
- inhibition ELISA signal, second value column ([2]; coat 1 μM 4073 peptide): 0.079
- inhibition ELISA signal, high ([2]; FIG. 18c, coat 1 μM 4073): 0.101
- inhibition ELISA signal, low ([2]; FIG. 18c, coat 1 μM 4073): 0.942

Substance: C-FGFPAHVSFDWLQSLS (N-terminal cysteine; CETP mimotope) [p4476]
- inhibition ELISA signal, high [2, 3]: 1.417
- inhibition ELISA signal, low [2, 3]: 2.000

Substance: C-DFGFPAHVTIDWLQSLN (N-terminal cysteine; CETP mimotope) [p4989]
- inhibition ELISA signal, first value column ([2]; coat 1 μM 4073 peptide): 0.932
- inhibition ELISA signal, second value column ([2]; coat 1 μM 4073 peptide): 0.274

Substance: C-DFGFPAHVFIDWLQSLS (N-terminal cysteine; CETP mimotope) [p4480]
- inhibition ELISA signal, high [2, 3]: 0.103
- inhibition ELISA signal, low [2, 3]: 0.521

Substance: C-PSHLIIDWLQ (N-terminal cysteine; CETP mimotope) [p4819]
- inhibition ELISA signal, first value column ([2]; coat 1 μM 4073 peptide): 2.226
- inhibition ELISA signal, second value column ([2]; coat 1 μM 4073 peptide): 2.158

Substance: C-FGFPAHVYIDWLQSLS [p4362]
- inhibition ELISA signal, 2 μg peptide ([2]; FIG. 10a): 0.75
- inhibition ELISA signal, 20 μg peptide ([2]; FIG. 10a): 0.15

Substance: C-PEHLLVDFLQSLS (N-terminal Cys) [reference compound]
- inhibition in in vitro competition ELISA, mAb “Frida” (in words) [2]: evtl. slightly inhibiting in vitro

Substance: C-AAFPAHAAADFLQALA (N-terminal Cys; CETP mimotope) [p4435]
- inhibition ELISA signal, high ([2]; FIG. 18c, coat 1 μM 4073): 1.969
- inhibition ELISA signal, low ([2]; FIG. 18c, coat 1 μM 4073): 1.281

Substance: C-DFGFPSHLIIDWLQSLS (N-terminal cysteine; CETP mimotope) [p4642]
- inhibition ELISA signal, first value column ([2]; coat 1 μM 4073 peptide): 0.171
- inhibition ELISA signal, second value column ([2]; coat 1 μM 4073 peptide): 0.082

Substance: C-FGFPAHVYIDWLQ (N-terminal cysteine; CETP mimotope) [p4630]
- inhibition ELISA signal, first value column ([2]; coat 1 μM 4073 peptide): 2.131
- inhibition ELISA signal, second value column ([2]; coat 1 μM 4073 peptide): 2.115

Substance: C-FGFPEHLLVDFLQSL (N-terminal Cys) [reference compound]
- inhibition in in vitro competition ELISA, mAb “Frida” (in words) [2]: inhibiting in vitro

Substance: p4187-KLH: F3-34 C-TFLSSLA coupled to KLH (CTFLSSLA; also: coupled to KLH)
- titer, p irrelevant ([1]; Alum s.c. (30 μg peptide)): no titer
- titer, p irrelevant ([1]; KLH/Gerbu s.c. (30 μg peptide)): no titer

Substance: C-DFGFPAHVLIDWLQSLN (N-terminal cysteine; CETP mimotope) [p4990]
- inhibition ELISA signal, first value column ([2]; coat 1 μM 4073 peptide): 0.263
- inhibition ELISA signal, second value column ([2]; coat 1 μM 4073 peptide): 0.073

Substance: p4223-KLH: F2-9; C-SFLDTLT coupled to KLH (CSFLDTLT; also: coupled to KLH)
- titer, p irrelevant ([1]; Alum s.c. (30 μg peptide)): no titer

Substance: p4184-KLH: F3-18 C-DFLRTLT coupled to KLH (CDFLRTLT; also: coupled to KLH)
- titer, p irrelevant ([1]; KLH/Alum i.d. (10 μg peptide)): no titer
